{"source": "patent US11661426B2", "about": "“Imidazole-containing inhibitors of ALK2 kinase” (BioCryst Pharmaceuticals, Inc., priority 2017, dated 2023)", "target": "ALK2 (Homo sapiens (Human), UniProt Q04771)", "sequence (Q04771 21-509)": "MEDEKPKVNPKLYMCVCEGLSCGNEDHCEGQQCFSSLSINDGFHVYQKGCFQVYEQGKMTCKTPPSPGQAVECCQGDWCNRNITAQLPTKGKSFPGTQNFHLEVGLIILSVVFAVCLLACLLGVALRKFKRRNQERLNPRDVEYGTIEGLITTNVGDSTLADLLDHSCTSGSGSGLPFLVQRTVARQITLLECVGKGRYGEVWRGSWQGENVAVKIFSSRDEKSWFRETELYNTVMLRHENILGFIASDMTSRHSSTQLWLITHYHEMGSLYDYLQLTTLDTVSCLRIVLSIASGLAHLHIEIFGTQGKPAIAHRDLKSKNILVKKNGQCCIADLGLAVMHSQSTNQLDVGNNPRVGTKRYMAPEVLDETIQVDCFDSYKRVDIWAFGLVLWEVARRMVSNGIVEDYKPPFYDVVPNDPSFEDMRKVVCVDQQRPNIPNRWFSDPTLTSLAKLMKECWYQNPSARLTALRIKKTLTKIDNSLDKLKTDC", "assay": "ALK2 inhibition, LanthaScreen Eu Kinase Binding Assay (ThermoFisher Scientific / Life Technologies)", "conditions": "read-out: Measured Ki (IC50) Value for Compounds: IC50", "description": "Biochemical assays to measure the inhibitory effects of the compounds were performed by ThermoFisher Scientific (Life Technologies). ALK2 inhibition was tested using LanthaScreen™ Eu Kinase Binding Assay screening protocol.", "data": [{"smiles": "COc1cc(-n2cnc(Nc3nc(N4CCC[C@@H]4C(N)=O)nn4cccc34)c2)cc(OC)c1OC", "note": "[Compound 210a, (R)-1-(4-((1-(3,4,5-trimethoxyphenyl)-1H-imidazol-4-yl)amino)pyrrolo[2,1-f][1,2,4]triazin-2-yl)pyrrolidine-2-carboxamide]", "values": [{"measurement": "IC50", "value": "< 0.1", "unit": "µM"}]}, {"smiles": "COc1cc(-n2cnc(Nc3nc(N4CC[C@H](O)C4)c4cccn4n3)c2)cc(OC)c1OC", "note": "[Compound 211b, (S)-1-(2-((1-(3,4,5-trimethoxyphenyl)-1H-imidazol-4-yl)amino)pyrrolo[2,1-f][1,2,4]triazin-4-yl)pyrrolidin-3-ol]", "values": [{"measurement": "IC50", "value": "< 0.1", "unit": "µM"}]}, {"smiles": "COc1c(C(C)=O)ccc(-n2cnc(Nc3nc(N4CCC[C@H]4CO)nn4cccc34)c2)c1OC", "note": "[Compound 212g, (S)-1-(4-(4-((2-(2-(hydroxymethyl)pyrrolidin-1-yl)pyrrolo[2,1-f][1,2,4]triazin-4-yl)amino)-1H-imidazol-1-yl)-2,3-dimethoxyphenyl)ethanone]", "values": [{"measurement": "IC50", "value": "< 0.1", "unit": "µM"}]}, {"smiles": "COc1cc(-n2cnc(Nc3nc4c(c(N5CCC[C@H]5C(N)=O)n3)CN(Cc3ccccc3)CC4)c2)cc(OC)c1OC", "note": "[Compound 213b, (S)-1-(6-benzyl-2-((1-(3,4,5-trimethoxyphenyl)-1H-imidazol-4-yl)amino)-5,6,7,8-tetrahydropyrido[4,3-d]pyrimidin-4-yl)pyrrolidine-2-carboxamide]", "values": [{"measurement": "IC50", "value": "< 0.1", "unit": "µM"}]}, {"smiles": "COc1cc(-n2cnc(Nc3nc(N4C[C@H](O)C[C@H]4CO)c4cccn4n3)c2)cc(OC)c1OC", "note": "[Compound 214b, (3R,5S)-5-(hydroxymethyl)-1-(2-((1-(3,4,5-trimethoxyphenyl)-1H-imidazol-4-yl)amino)pyrrolo[2,1-f][1,2,4]triazin-4-yl)pyrrolidin-3-ol]", "values": [{"measurement": "IC50", "value": "< 0.1", "unit": "µM"}]}, {"smiles": "COc1cc(-n2cnc(Nc3nc4c(c(N5CCC[C@H]5CO)n3)CCN(Cc3ccc(C(F)(F)F)cc3)C4)c2)cc(OC)c1OC", "note": "[Compound 215a, (S)-(1-(7-(4-(trifluoromethyl)benzyl)-2-((1-(3,4,5-trimethoxyphenyl)-1H-imidazol-4-yl)amino)-5,6,7,8-tetrahydropyrido[3,4-d]pyrimidin-4-yl)pyrrolidin-2-yl)methanol]", "values": [{"measurement": "IC50", "value": "< 0.1", "unit": "µM"}]}, {"smiles": "COc1cc(-n2cnc(Nc3nc4c(c(N5CCC[C@H]5CO)n3)CCN(Cc3cccnc3)C4)c2)cc(OC)c1OC", "note": "[Compound 216a, (S)-(1-(7-(pyridin-3-ylmethyl)-2-((1-(3,4,5-trimethoxyphenyl)-1H-imidazol-4-yl)amino)-5,6,7,8-tetrahydropyrido[3,4-d]pyrimidin-4-yl)pyrrolidin-2-yl)methanol]", "values": [{"measurement": "IC50", "value": "< 0.1", "unit": "µM"}]}, {"smiles": "COc1cc(-n2cnc(Nc3nc4c(c(N5CCC[C@H]5CO)n3)CCN(Cc3cccc(OC(F)(F)F)c3)C4)c2)cc(OC)c1OC", "note": "[Compound 217a, (S)-(1-(7-(3-(trifluoromethoxy)benzyl)-2-((1-(3,4,5-trimethoxyphenyl)-1H-imidazol-4-yl)amino)-5,6,7,8-tetrahydropyrido[3,4-d]pyrimidin-4-yl)pyrrolidin-2-yl)methanol]", "values": [{"measurement": "IC50", "value": "< 0.1", "unit": "µM"}]}, {"smiles": "COc1cc(-n2cnc(Nc3nc4c(c(N5CCC[C@H]5CO)n3)CCN(CC(N)=O)C4)c2)cc(OC)c1OC", "note": "[Compound 218a, (S)-2-(4-(2-(hydroxymethyl)pyrrolidin-1-yl)-2-((1-(3,4,5-trimethoxyphenyl)-1H-imidazol-4-yl)amino)-5,6-dihydropyrido[3,4-d]pyrimidin-7(8H)-yl)acetamide]", "values": [{"measurement": "IC50", "value": "< 0.1", "unit": "µM"}]}, {"smiles": "COc1cc(-n2cnc(Nc3nc4c(c(N5CCC[C@H]5CO)n3)CCN(Cc3ccc(C#N)cc3)C4)c2)cc(OC)c1OC", "note": "[Compound 219a, (S)-4-((4-(2-(hydroxymethyl)pyrrolidin-1-yl)-2-((1-(3,4,5-trimethoxyphenyl)-1H-imidazol-4-yl)amino)-5,6-dihydropyrido[3,4-d]pyrimidin-7(8H)-yl)methyl)benzonitrile]", "values": [{"measurement": "IC50", "value": "< 0.1", "unit": "µM"}]}]}
